Results reported in patent US20260356819A1, “OXOISOINDOLINYL-SUBSTITUTED […] DERIVATIVE AND USE THEREOF” (GLUETACS THERAPEUTICS (SHANGHAI) CO., LTD., priority 2023, published 2026).

Experiments:
Type in all cases: cell-based
Details in all cases: compounds at 50 nM and 500 nM
WEE1 = target: T1, WEE1 (Homo sapiens, UniProt P30291+Q96SW2); assay: Western blot degradation of WEE1 in hPBMCs (24 h)
T1 construct: The supernatant was aspirated as the extracted total cell protein; endogenous in cells; host or cells: human peripheral blood mononuclear cells (hPBMCs)
T1 sequence (P30291 whole entry): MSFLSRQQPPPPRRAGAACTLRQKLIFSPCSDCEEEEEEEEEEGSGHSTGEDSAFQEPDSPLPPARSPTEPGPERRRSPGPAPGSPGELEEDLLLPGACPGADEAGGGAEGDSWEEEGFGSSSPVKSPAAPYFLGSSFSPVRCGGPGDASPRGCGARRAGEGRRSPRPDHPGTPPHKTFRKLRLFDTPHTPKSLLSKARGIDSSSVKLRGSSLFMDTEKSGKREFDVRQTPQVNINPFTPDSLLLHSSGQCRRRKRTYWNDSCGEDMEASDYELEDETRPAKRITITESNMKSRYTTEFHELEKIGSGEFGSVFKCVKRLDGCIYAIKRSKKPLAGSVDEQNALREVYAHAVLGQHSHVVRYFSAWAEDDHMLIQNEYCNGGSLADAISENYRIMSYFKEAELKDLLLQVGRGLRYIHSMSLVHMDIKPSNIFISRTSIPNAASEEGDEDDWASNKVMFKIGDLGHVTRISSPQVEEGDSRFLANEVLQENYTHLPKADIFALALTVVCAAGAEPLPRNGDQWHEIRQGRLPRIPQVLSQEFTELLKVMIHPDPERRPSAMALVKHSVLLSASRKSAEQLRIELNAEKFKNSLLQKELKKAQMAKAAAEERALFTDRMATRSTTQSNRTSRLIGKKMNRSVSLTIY
T1 sequence (Q96SW2 whole entry): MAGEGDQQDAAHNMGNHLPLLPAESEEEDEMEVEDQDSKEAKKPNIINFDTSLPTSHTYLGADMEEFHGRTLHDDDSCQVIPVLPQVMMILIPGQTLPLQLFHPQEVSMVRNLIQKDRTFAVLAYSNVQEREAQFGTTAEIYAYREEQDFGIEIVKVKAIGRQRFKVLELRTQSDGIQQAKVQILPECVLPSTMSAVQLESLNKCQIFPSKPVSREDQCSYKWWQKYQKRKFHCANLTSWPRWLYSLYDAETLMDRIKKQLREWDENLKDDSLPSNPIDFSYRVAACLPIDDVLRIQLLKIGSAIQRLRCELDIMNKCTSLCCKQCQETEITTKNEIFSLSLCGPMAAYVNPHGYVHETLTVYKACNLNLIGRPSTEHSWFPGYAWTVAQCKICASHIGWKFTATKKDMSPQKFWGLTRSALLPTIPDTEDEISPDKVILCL
T1 sequence (Q16531 whole entry partner): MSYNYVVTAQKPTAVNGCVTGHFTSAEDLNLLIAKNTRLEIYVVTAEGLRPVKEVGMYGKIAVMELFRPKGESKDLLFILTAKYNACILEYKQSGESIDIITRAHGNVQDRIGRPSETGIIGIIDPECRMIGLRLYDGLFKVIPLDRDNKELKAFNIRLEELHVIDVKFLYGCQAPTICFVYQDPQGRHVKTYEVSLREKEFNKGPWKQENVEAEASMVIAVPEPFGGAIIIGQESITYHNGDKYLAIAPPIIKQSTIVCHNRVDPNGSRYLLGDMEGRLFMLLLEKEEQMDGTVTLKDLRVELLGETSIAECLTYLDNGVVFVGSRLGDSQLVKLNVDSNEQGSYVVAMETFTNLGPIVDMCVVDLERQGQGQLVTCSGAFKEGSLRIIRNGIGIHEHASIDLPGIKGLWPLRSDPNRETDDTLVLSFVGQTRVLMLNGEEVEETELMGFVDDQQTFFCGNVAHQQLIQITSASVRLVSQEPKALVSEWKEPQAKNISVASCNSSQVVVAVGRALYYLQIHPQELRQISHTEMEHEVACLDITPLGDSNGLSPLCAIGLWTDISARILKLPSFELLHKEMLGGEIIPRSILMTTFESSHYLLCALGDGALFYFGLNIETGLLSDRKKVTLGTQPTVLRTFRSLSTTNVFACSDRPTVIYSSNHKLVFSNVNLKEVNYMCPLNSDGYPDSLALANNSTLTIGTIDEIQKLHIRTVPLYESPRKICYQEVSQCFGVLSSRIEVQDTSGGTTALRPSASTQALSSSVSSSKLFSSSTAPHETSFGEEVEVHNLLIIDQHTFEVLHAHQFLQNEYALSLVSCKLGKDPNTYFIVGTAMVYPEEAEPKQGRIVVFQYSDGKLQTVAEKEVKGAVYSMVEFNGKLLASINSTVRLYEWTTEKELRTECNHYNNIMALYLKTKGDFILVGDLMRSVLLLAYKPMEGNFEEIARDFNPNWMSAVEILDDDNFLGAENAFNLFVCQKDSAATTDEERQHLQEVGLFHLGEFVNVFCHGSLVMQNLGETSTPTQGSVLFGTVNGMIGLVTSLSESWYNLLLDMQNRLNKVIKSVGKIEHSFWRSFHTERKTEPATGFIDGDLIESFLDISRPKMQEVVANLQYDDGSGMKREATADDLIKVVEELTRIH
Summary of the method: (§1)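 Degradation in primary human PBMCs after 24 h compound exposure at 50 and 500 nM. Western blot band intensities, normalised to an internal control protein, expressed as % protein remaining relative to DMSO.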

IKZF1 = target: T2, IKZF1 (Homo sapiens, UniProt Q13422+Q96SW2); assay: Western blot degradation of IKZF1 in hPBMCs (24 h)
T2 construct: The supernatant was aspirated as the extracted total cell protein; endogenous in cells; host or cells: human peripheral blood mononuclear cells (hPBMCs)
T2 sequence (Q13422 whole entry): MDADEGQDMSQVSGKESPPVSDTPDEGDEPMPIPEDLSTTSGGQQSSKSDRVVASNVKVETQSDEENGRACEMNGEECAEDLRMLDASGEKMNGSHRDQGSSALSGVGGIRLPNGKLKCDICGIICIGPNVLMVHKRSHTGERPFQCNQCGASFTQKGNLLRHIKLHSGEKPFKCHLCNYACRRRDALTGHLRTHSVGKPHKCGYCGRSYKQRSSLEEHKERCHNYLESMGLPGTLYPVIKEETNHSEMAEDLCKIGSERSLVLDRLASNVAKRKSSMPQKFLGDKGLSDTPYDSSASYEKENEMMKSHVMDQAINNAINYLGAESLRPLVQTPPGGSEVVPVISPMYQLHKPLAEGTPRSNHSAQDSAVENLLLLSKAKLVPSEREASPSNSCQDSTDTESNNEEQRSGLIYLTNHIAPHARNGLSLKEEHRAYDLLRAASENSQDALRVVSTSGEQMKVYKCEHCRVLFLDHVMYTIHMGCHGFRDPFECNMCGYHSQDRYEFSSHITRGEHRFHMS
T2 sequence (Q96SW2 whole entry): as the sequence (Q96SW2 whole entry) above
T2 sequence (Q16531 whole entry partner): as the sequence (Q16531 whole entry partner) above
Summary of the method: as §1

CK1α = target: T3, CK1α (Homo sapiens, UniProt P48729+Q96SW2); assay: Western blot degradation of CK1α in hPBMCs (24 h)
T3 construct: The supernatant was aspirated as the extracted total cell protein; endogenous in cells; host or cells: human peripheral blood mononuclear cells (hPBMCs)
T3 sequence (P48729 whole entry): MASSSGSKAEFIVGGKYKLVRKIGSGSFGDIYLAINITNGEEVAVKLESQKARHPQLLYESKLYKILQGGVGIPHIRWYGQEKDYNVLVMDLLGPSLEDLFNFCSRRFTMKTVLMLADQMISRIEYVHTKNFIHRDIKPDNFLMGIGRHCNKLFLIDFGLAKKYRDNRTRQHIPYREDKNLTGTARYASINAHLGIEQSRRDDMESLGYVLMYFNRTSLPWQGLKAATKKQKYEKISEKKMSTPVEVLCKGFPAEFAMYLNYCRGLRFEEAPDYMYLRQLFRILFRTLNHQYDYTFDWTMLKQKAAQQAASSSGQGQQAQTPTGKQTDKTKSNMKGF
T3 sequence (Q96SW2 whole entry): as the sequence (Q96SW2 whole entry) above
T3 sequence (Q16531 whole entry partner): as the sequence (Q16531 whole entry partner) above
Summary of the method: as §1

IKZF2 = target: T4, IKZF2 (Homo sapiens, UniProt Q96SW2+Q9UKS7); assay: Western blot degradation of IKZF2 in hPBMCs (24 h)
T4 construct: The supernatant was aspirated as the extracted total cell protein; endogenous in cells; host or cells: human peripheral blood mononuclear cells (hPBMCs)
T4 sequence (Q9UKS7 whole entry): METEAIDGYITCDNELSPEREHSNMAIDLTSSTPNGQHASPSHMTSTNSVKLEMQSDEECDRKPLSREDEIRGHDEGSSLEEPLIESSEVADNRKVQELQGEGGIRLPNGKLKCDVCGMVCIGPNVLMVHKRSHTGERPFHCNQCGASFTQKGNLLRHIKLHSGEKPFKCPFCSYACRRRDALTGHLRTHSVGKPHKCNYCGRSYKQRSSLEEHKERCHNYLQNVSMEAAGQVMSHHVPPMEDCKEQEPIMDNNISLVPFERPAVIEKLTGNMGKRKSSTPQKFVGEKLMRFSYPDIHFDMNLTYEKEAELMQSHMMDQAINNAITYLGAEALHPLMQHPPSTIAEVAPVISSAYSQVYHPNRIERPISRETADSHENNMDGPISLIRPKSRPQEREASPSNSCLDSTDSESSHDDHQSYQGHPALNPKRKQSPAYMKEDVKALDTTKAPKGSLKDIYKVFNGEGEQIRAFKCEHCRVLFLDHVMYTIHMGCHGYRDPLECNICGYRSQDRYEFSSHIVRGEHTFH
T4 sequence (Q96SW2 whole entry): as the sequence (Q96SW2 whole entry) above
T4 sequence (Q16531 whole entry partner): as the sequence (Q16531 whole entry partner) above
Summary of the method: as §1

GSPT1 = target: T5, GSPT1 (Homo sapiens, UniProt P15170+Q96SW2); assay: Western blot degradation of GSPT1 in hPBMCs (24 h)
T5 construct: The supernatant was aspirated as the extracted total cell protein; endogenous in cells; host or cells: human peripheral blood mononuclear cells (hPBMCs)
Summary of the method: as §1

IKZF3 = target: T6, IKZF3 (Homo sapiens, UniProt Q96SW2+Q9UKT9); assay: Western blot degradation of IKZF3 in hPBMCs (24 h)
T6 construct: The supernatant was aspirated as the extracted total cell protein; endogenous in cells; host or cells: human peripheral blood mononuclear cells (hPBMCs)
T6 sequence (Q9UKT9 whole entry): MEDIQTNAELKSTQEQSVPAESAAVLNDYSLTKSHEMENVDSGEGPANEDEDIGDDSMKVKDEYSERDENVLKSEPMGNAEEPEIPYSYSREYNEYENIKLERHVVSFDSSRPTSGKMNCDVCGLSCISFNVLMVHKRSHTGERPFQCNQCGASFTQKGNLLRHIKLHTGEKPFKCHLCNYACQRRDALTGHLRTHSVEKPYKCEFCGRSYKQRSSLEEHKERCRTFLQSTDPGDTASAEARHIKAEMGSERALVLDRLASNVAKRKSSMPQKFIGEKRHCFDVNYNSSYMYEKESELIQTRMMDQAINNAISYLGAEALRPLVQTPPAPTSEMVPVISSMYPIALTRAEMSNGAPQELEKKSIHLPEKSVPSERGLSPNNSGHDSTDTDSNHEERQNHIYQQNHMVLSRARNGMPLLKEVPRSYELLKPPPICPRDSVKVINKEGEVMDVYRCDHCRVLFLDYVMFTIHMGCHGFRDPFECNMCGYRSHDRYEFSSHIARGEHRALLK
T6 sequence (Q96SW2 whole entry): as the sequence (Q96SW2 whole entry) above
T6 sequence (Q16531 whole entry partner): as the sequence (Q16531 whole entry partner) above
Summary of the method: as §1

Row | Structure (SMILES) | WEE1 substrate protein remaining % (WEE1) | IKZF1 substrate protein remaining % (IKZF1) | CK1α substrate protein remaining % (CK1α) | IKZF2 substrate protein remaining % (IKZF2) | GSPT1 substrate protein remaining % (GSPT1) | IKZF3 substrate protein remaining % (IKZF3)
1 | O=C1CCN(N2C(=O)c3ccc(CN4C5CC4CN(C(=O)C4=C(c6ccc(F)cc6)CCCC4)C5)cc3C2=O)C(=O)N1 [GT-07377, 2-(2,4-dioxotetrahydropyrimidin-1(2H)-yl)-5-((3-(4′-fluoro-3,4,5,6-tetrahydro-[1,1′-biphenyl]-2-carbonyl)-3,6-diazabicyclo[3.1.1]heptan-6-yl)methyl)isoindoline-1,3-dione] | A (0% ≤ substrate protein remaining % ≤80%) | B (80%< substrate protein remaining % ≤100%) | A (0% ≤ substrate protein remaining % ≤80%) | A (0% ≤ substrate protein remaining % ≤80%) | A (0% ≤ substrate protein remaining % ≤80%) | B (80%< substrate protein remaining % ≤100%)
2 | Cc1cc2c(N3CCN(Cc4ccc5c(c4)C(=O)N(N4CCC(=O)NC4=O)C5=O)CC3)ncnc2s1 [GT-08092, 2-(2,4-dioxotetrahydropyrimidin-1(2H)-yl)-5-((4-(6-methylthieno[2,3-d]pyrimidin-4-yl)piperazin-1-yl)methyl)isoindoline-1,3-dione] | A (0% ≤ substrate protein remaining % ≤80%) | B (80%< substrate protein remaining % ≤100%) | A (0% ≤ substrate protein remaining % ≤80%) | B (80%< substrate protein remaining % ≤100%) | A (0% ≤ substrate protein remaining % ≤80%) | B (80%< substrate protein remaining % ≤100%)
3 | O=C1CCN(N2C(=O)c3ccc(CN4CCC(n5c(=O)[nH]c6cc(F)ccc65)CC4)cc3C2=O)C(=O)N1 [GT-07583, 2-(2,4-dioxotetrahydropyrimidin-1(2H)-yl)-5-((4-(5-fluoro-2-oxo-2,3-dihydro-1H-benzo[d]imidazol-1-yl)piperidin-1-yl)methyl)isoindoline-1,3-dione] | A (0% ≤ substrate protein remaining % ≤80%) | B (80%< substrate protein remaining % ≤100%) | B (80%< substrate protein remaining % ≤100%) | B (80%< substrate protein remaining % ≤100%) | A (0% ≤ substrate protein remaining % ≤80%) | B (80%< substrate protein remaining % ≤100%)
4 | Cc1nc(C2=CCN(Cc3ccc4c(c3)C(=O)N(N3CCC(=O)NC3=O)C4=O)CC2)c2c(-c3ccccc3)csc2n1 [GT-08484, 2-(2,4-dioxotetrahydropyrimidin-1(2H)-yl)-5-((4-(2-methyl-5-phenylthieno[2,3-d]pyrimidin-4-yl)-3,6-dihydropyridin-1(2H)-yl)methyl)isoindoline-1,3-dione] | A (0% ≤ substrate protein remaining % ≤80%) | A (0% ≤ substrate protein remaining % ≤80%) | A (0% ≤ substrate protein remaining % ≤80%) | A (0% ≤ substrate protein remaining % ≤80%) | A (0% ≤ substrate protein remaining % ≤80%) | A (0% ≤ substrate protein remaining % ≤80%)
5 | CC(C)c1cc2c(N3CCN(Cc4ccc5c(c4)CN(N4CCC(=O)NC4=O)C5=O)CC3)ncnc2s1 [GT-08060, 1-(5-((4-(6-isopropylthieno[2,3-d]pyrimidin-4-yl)piperazin-1-yl)methyl)-1-oxoisoindolin-2-yl)dihydropyrimidine-2,4(1H,3H)-dione] | B (80%< substrate protein remaining % ≤100%) | B (80%< substrate protein remaining % ≤100%) | B (80%< substrate protein remaining % ≤100%) | A (0% ≤ substrate protein remaining % ≤80%) | B (80%< substrate protein remaining % ≤100%) | A (0% ≤ substrate protein remaining % ≤80%)
6 | O=C1CCN(N2Cc3cc(CN4CC5CCC(C4)N5C(c4ccccc4)c4ccccc4)ccc3C2=O)C(=O)N1 [GT-06452, 1-(5-((8-benzhydryl-3,8-diazabicyclo[3.2.1]octan-3-yl)methyl)-1-oxoisoindolin-2-yl)dihydropyrimidine-2,4(1H,3H)-dione] | A (0% ≤ substrate protein remaining % ≤80%) | B (80%< substrate protein remaining % ≤100%) | B (80%< substrate protein remaining % ≤100%) | B (80%< substrate protein remaining % ≤100%) | B (80%< substrate protein remaining % ≤100%) | B (80%< substrate protein remaining % ≤100%)
7 | Cc1csc2ncnc(C3=CCN(Cc4ccc5c(c4)CN(N4CCC(=O)NC4=O)C5=O)CC3)c12 [GT-08117, 1-(5-((4-(5-methylthieno[2,3-d]pyrimidin-4-yl)-3,6-dihydropyridin-1(2H)-yl)methyl)-1-oxoisoindolin-2-yl)dihydropyrimidine-2,4(1H,3H)-dione] | B (80%< substrate protein remaining % ≤100%) | B (80%< substrate protein remaining % ≤100%) | A (0% ≤ substrate protein remaining % ≤80%) | B (80%< substrate protein remaining % ≤100%) | A (0% ≤ substrate protein remaining % ≤80%) | A (0% ≤ substrate protein remaining % ≤80%)
8 | Cc1ccsc1C1CCN(Cc2ccc3c(c2)C(=O)N(N2CCC(=O)NC2=O)C3=O)CC1 [GT-07306, 2-(2,4-dioxotetrahydropyrimidin-1(2H)-yl)-5-((4-(3-methylthiophen-2-yl)piperidin-1-yl)methyl)isoindoline-1,3-dione] | B (80%< substrate protein remaining % ≤100%) | B (80%< substrate protein remaining % ≤100%) | B (80%< substrate protein remaining % ≤100%) | B (80%< substrate protein remaining % ≤100%) | A (0% ≤ substrate protein remaining % ≤80%) | A (0% ≤ substrate protein remaining % ≤80%)
9 | O=C1CCN(N2C(=O)c3ccc(CN4CCC(c5ncnc6scc(-c7ccccc7)c56)CC4)cc3C2=O)C(=O)N1 [GT-08109, 2-(2,4-dioxotetrahydropyrimidin-1(2H)-yl)-5-((4-(5-phenylthieno[2,3-d]pyrimidin-4-yl)piperidin-1-yl)methyl)isoindoline-1,3-dione] | A (0% ≤ substrate protein remaining % ≤80%) | A (0% ≤ substrate protein remaining % ≤80%) | A (0% ≤ substrate protein remaining % ≤80%) | A (0% ≤ substrate protein remaining % ≤80%) | A (0% ≤ substrate protein remaining % ≤80%) | A (0% ≤ substrate protein remaining % ≤80%)
10 | Cc1cccc(N2CCN(Cc3ccc4c(c3)CN(N3CCC(=O)NC3=O)C4=O)CC2)n1 [GT-05125, 1-(5-((4-(6-methylpyridin-2-yl)piperazin-1-yl)methyl)-1-oxoisoindolin-2-yl)dihydropyrimidine-2,4(1H,3H)-dione] | A (0% ≤ substrate protein remaining % ≤80%) | A (0% ≤ substrate protein remaining % ≤80%) | A (0% ≤ substrate protein remaining % ≤80%) | B (80%< substrate protein remaining % ≤100%) | A (0% ≤ substrate protein remaining % ≤80%) | A (0% ≤ substrate protein remaining % ≤80%)
11 | O=C1CCN(N2Cc3cc(CN4C5CCC4CN(c4cccc(Cl)c4Cl)C5)ccc3C2=O)C(=O)N1 [GT-07430, 1-(5-((3-(2,3-dichlorophenyl)-3,8-diazabicyclo[3.2.1]octan-8-yl)methyl)-1-oxoisoindolin-2-yl)dihydropyrimidine-2,4(1H,3H)-dione] | B (80%< substrate protein remaining % ≤100%) | A (0% ≤ substrate protein remaining % ≤80%) | A (0% ≤ substrate protein remaining % ≤80%) | B (80%< substrate protein remaining % ≤100%) | A (0% ≤ substrate protein remaining % ≤80%) | B (80%< substrate protein remaining % ≤100%)
12 | CC1(C)CCC(CN2CCN(Cc3ccc4c(c3)C(=O)N(N3CCC(=O)NC3=O)C4=O)CC2)=C(c2ccc(Cl)cc2)C1 [GT-05180, 5-((4-((4′-chloro-5,5-dimethyl-3,4,5,6-tetrahydro-[1,1′-biphenyl]-2-yl)methyl)piperazin-1-yl)methyl)-2-(2,4-dioxotetrahydropyrimidin-1(2H)-yl)isoindoline-1,3-dione] | A (0% ≤ substrate protein remaining % ≤80%) | B (80%< substrate protein remaining % ≤100%) | B (80%< substrate protein remaining % ≤100%) | B (80%< substrate protein remaining % ≤100%) | B (80%< substrate protein remaining % ≤100%) | B (80%< substrate protein remaining % ≤100%)
